Laboratory results: ChEMBL document CHEMBL1156330, “Discovery of a spiroindane based compound as a potent, selective, orally bioavailable melanocortin subtype-4 receptor agonist” (Bioorg Med Chem Lett, 2010)

Legend:
[1] = biological target: T1, Melanocyte-stimulating hormone receptor (Homo sapiens, UniProt Q01726); experiment: Agonist activity at human MC1R expressed in CHO cells assessed as stimulation of intracellular cAMP accumulation at 10 uM relative to alpha-MSH; assay type: functional, cell-based
Target sequence in this assay (Q01726 whole entry, looked up): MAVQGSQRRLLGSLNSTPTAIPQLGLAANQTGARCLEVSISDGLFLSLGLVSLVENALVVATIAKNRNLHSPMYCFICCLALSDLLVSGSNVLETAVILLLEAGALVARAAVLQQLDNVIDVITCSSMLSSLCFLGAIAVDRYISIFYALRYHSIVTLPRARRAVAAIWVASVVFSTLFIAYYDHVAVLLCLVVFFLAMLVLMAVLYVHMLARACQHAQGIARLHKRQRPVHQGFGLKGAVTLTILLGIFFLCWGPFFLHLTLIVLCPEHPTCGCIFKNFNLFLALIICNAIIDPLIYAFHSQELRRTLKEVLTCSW

Melanocortin receptor 4 [2] = biological target: T2, Melanocortin receptor 4 (Homo sapiens, UniProt P32245); experiment: Agonist activity at human MC4R expressed in CHO cells assessed as stimulation of intracellular cAMP accumulation at 10 uM relative to alpha-MSH; assay type: functional, cell-based
T2 sequence (P32245 whole entry): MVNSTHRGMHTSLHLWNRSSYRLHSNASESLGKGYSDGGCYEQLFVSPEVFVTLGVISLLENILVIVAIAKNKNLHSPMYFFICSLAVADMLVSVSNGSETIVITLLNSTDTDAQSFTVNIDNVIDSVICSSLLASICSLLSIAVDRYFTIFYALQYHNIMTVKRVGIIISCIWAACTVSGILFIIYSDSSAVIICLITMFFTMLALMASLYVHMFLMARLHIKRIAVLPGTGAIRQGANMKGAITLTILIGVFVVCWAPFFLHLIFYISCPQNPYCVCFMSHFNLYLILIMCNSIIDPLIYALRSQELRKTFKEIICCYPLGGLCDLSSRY

[3] = biological target: T1, Melanocyte-stimulating hormone receptor; experiment: Agonist activity at human MC1R expressed in CHO cells assessed as stimulation of intracellular cAMP accumulation; assay type: functional, cell-based
Target sequence in this assay (Q01726 whole entry): as the sequence (Q01726 whole entry, looked up) above

Melanocortin receptor 4 [4] = biological target: T2, Melanocortin receptor 4; experiment: Agonist activity at human MC4R expressed in CHO cells assessed as stimulation of intracellular cAMP accumulation; assay type: functional, cell-based
Melanocortin receptor 4 [5] = biological target: T2, Melanocortin receptor 4; experiment: Displacement of [125I]NDP-alpha-MSH from human MC4R expressed in CHO cells; assay type: cell-based
[6] = Volume of distribution at steady state in rhesus monkey at 0.5 mg/kg, iv and 2 mg/kg, po; assay type: ADME, organism-based, Macaca mulatta; conditions: in vivo, read-out: Vdss
Rattus norvegicus [7] = experiment: Erectogenic activity in rat assessed as spontaneous erections at 1 ug/kg, iv for 30 mins; assay type: functional
Rattus norvegicus [8] = experiment: Erectogenic activity in iv dosed rat assessed as spontaneous erections measured for 30 mins; assay type: functional, organism-based
Melanocortin receptor 5 [9] = biological target: T3, Melanocortin receptor 5 (Homo sapiens, UniProt P33032); experiment: Displacement of [125I]NDP-alpha-MSH from human MC5R expressed in CHO cells; assay type: cell-based
T3 sequence (P33032 whole entry): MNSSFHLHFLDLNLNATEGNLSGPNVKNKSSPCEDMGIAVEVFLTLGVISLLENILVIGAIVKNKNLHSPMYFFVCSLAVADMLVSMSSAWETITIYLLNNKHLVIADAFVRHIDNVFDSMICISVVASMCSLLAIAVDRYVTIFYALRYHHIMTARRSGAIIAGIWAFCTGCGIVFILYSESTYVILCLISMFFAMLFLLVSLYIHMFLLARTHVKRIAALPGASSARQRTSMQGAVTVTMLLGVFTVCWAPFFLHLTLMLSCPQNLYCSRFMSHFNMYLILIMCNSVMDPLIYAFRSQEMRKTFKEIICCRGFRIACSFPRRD

[10] = biological target: Melanocortin receptor 4 (Mus musculus) (UniProt P56450); experiment: Agonist activity at mouse MC4R expressed in CHO cells assessed as stimulation of intracellular cAMP accumulation at 10 uM relative to alpha-MSH; assay type: functional, cell-based
Sequence of Melanocortin receptor 4 (Mus musculus) (P56450 whole entry): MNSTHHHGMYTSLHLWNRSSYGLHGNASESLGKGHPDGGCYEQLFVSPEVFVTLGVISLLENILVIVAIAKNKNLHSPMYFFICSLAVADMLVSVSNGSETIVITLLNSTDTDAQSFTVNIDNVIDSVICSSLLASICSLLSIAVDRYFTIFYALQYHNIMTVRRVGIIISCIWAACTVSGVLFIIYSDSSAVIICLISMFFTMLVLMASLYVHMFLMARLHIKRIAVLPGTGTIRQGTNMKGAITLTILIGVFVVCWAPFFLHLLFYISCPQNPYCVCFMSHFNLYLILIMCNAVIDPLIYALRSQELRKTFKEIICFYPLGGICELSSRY

Melanocortin receptor 4 [11] = biological target: Melanocortin receptor 4 (Rattus norvegicus, UniProt P70596); experiment: Agonist activity at rat MC4R expressed in CHO cells assessed as stimulation of intracellular cAMP accumulation; assay type: functional, cell-based
Sequence of Melanocortin receptor 4 (Rattus norvegicus, UniProt P70596) (P70596 whole entry): as the sequence (P56450 whole entry) above, with Y21H, P36S, S199T, T239A, S329P, S330G counted along it

[12] = Bioavailability in Sprague-Dawley rat at 1 mg/kg, iv and 4 mg/kg, po; assay type: ADME, organism-based; conditions: in vivo
[13] = Clearance in Sprague-Dawley rat at 1 mg/kg, iv and 4 mg/kg, po; assay type: ADME, organism-based; conditions: in vivo
Rattus norvegicus [14] = experiment: Erectogenic activity in rat assessed as spontaneous erections at 0.1 mg/kg, iv for 30 mins; assay type: functional
[15] = Clearance in rhesus monkey at 0.5 mg/kg, iv and 2 mg/kg, po; assay type: ADME, organism-based, Macaca mulatta; conditions: in vivo
Rattus norvegicus [16] = experiment: Erectogenic activity in rat assessed as spontaneous erections at 3 mg/kg, iv for 30 mins; assay type: functional
Melanocortin receptor 3 [17] = biological target: T4, Melanocortin receptor 3 (Homo sapiens, UniProt P41968); experiment: Displacement of [125I]NDP-alpha-MSH from human MC3R expressed in CHO cells; assay type: cell-based
T4 sequence (P41968 whole entry): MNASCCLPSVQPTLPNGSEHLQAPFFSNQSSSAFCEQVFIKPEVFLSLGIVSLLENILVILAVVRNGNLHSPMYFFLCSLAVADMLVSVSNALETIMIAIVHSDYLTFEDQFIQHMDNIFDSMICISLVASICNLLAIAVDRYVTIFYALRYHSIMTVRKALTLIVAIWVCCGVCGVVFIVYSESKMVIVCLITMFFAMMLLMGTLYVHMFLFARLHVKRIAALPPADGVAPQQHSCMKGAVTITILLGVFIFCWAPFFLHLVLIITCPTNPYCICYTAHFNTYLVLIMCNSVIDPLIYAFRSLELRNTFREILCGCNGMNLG

[18] = Volume of distribution at steady state in Beagle dog at 0.5 mg/kg, iv and 1.0 mg/kg, po; assay type: ADME, organism-based, Canis lupus familiaris; conditions: in vivo, read-out: Vdss
Rattus norvegicus [19] = experiment: Erectogenic activity in rat assessed as spontaneous erections at 0.001 mg/kg, iv for 30 mins; assay type: functional
[20] = Clearance in Beagle dog at 0.5 mg/kg, iv and 1.0 mg/kg, po; assay type: ADME, organism-based, Canis lupus familiaris; conditions: in vivo
[21] = biological target: T1, Melanocyte-stimulating hormone receptor; experiment: Displacement of [125I]NDP-alpha-MSH from human MC1R expressed in CHO cells; assay type: cell-based
Target sequence in this assay (Q01726 whole entry): as the sequence (Q01726 whole entry, looked up) above

Rattus norvegicus [22] = experiment: Antiobesity activity in po dosed DIO rat assessed as decrease in body weight after 14 days
Melanocortin receptor 5 [23] = biological target: T3, Melanocortin receptor 5; experiment: Agonist activity at human MC5R expressed in CHO cells assessed as stimulation of intracellular cAMP accumulation at 10 uM relative to alpha-MSH; assay type: functional, cell-based
Melanocortin receptor 4 [24] = biological target: Melanocortin receptor 4 (Mus musculus, UniProt P56450); experiment: Agonist activity at mouse MC4R expressed in CHO cells assessed as stimulation of intracellular cAMP accumulation; assay type: functional, cell-based
Sequence of Melanocortin receptor 4 (Mus musculus, UniProt P56450) (P56450 whole entry): as the sequence (P56450 whole entry) above

Melanocortin receptor 3 [25] = biological target: T4, Melanocortin receptor 3; experiment: Agonist activity at human MC3R expressed in CHO cells assessed as stimulation of intracellular cAMP accumulation; assay type: functional, cell-based
[26] = Half life in Beagle dog at 0.5 mg/kg, iv and 1.0 mg/kg, po; assay type: ADME, organism-based, Canis lupus familiaris; conditions: in vivo
Melanocortin receptor 3 [27] = biological target: T4, Melanocortin receptor 3; experiment: Agonist activity at human MC3R expressed in CHO cells assessed as stimulation of intracellular cAMP accumulation at 10 uM relative to alpha-MSH; assay type: functional, cell-based
[28] = biological target: Melanocortin receptor 3 (Rattus norvegicus) (UniProt P32244); experiment: Agonist activity at rat MC3R expressed in CHO cells assessed as stimulation of intracellular cAMP accumulation at 10 uM relative to alpha-MSH; assay type: functional, cell-based
Sequence of Melanocortin receptor 3 (Rattus norvegicus) (P32244 whole entry): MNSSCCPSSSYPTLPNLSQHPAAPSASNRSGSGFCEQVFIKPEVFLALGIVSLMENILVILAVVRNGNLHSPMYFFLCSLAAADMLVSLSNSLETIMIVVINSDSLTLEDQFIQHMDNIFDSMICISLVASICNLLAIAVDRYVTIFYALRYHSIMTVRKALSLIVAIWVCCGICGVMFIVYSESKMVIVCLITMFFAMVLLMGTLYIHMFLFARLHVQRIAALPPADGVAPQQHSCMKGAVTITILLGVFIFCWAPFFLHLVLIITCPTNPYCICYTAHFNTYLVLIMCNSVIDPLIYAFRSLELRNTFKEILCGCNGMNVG

Rattus norvegicus [29] = experiment: Erectogenic activity in rat assessed as spontaneous erections at 1 mg/kg, iv for 30 mins; assay type: functional
[30] = Bioavailability in Beagle dog at 0.5 mg/kg, iv and 1.0 mg/kg, po; assay type: ADME, organism-based, Canis lupus familiaris; conditions: in vivo
Melanocortin receptor 3 [31] = biological target: Melanocortin receptor 3 (Rattus norvegicus, UniProt P32244); experiment: Agonist activity at rat MC3R expressed in CHO cells assessed as stimulation of intracellular cAMP accumulation; assay type: functional, cell-based
Sequence of Melanocortin receptor 3 (Rattus norvegicus, UniProt P32244) (P32244 whole entry): as above

[32] = biological target: Melanocortin receptor 4 (Rattus norvegicus) (UniProt P70596); experiment: Agonist activity at rat MC4R expressed in CHO cells assessed as stimulation of intracellular cAMP accumulation at 10 uM relative to alpha-MSH; assay type: functional, cell-based
Sequence of Melanocortin receptor 4 (Rattus norvegicus) (P70596 whole entry): as the sequence (P56450 whole entry) above, with Y21H, P36S, S199T, T239A, S329P, S330G counted along it

[33] = Bioavailability in rhesus monkey at 0.5 mg/kg, iv and 2 mg/kg, po; assay type: ADME, organism-based, Macaca mulatta; conditions: in vivo
[34] = Volume of distribution at steady state in Sprague-Dawley rat at 1 mg/kg, iv and 4 mg/kg, po; assay type: ADME, organism-based; conditions: in vivo, read-out: Vdss
Rattus norvegicus [35] = experiment: Erectogenic activity in rat assessed as spontaneous erections at 0.01 mg/kg, iv for 30 mins; assay type: functional
[36] = Half life in Sprague-Dawley rat at 1 mg/kg, iv and 4 mg/kg, po; assay type: ADME, organism-based; conditions: in vivo
[37] = Half life in rhesus monkey at 0.5 mg/kg, iv and 2 mg/kg, po; assay type: ADME, organism-based, Macaca mulatta; conditions: in vivo
Rattus norvegicus [38] = experiment: Antiobesity activity in po dosed DIO rat assessed as decrease in food intake after 14 days

`CC(=O)NC(C)(C)[C@H]1CC2(CCN(C(=O)[C@H]3CN(C(C)(C)C)C[C@@H]3c3ccc(F)cc3F)CC2)c2cc(Cl)c(C)cc21` gave an Emax [1] of 41%, an Emax (Melanocortin receptor 4 [2]) of 111% and an EC50 [3] of 620 nM. The EC50 (Melanocortin receptor 4 [4]) was 37.2 nM and the IC50 (Melanocortin receptor 4 [5]) was 39.7 nM.
With `CC(=O)NC(C)(C)[C@@H]1CC2(CCN(C(=O)[C@H]3CN(C(C)(C)C)C[C@@H]3c3ccc(F)cc3F)CC2)c2cc(Cl)c(C)cc21` the Emax [1] was 15%, the Emax (Melanocortin receptor 4 [2]) was 107% and the EC50 (Melanocortin receptor 4 [4]) was 94 nM. The IC50 (Melanocortin receptor 4 [5]) was 89 nM.
Molecule `CC(=O)NC(C)(C)[C@H]1CC2(CCN(C(=O)[C@@H]3CN(C(C)(C)C)C[C@H]3c3ccc(F)cc3F)CC2)c2cc(Cl)c(C)cc21` has an Emax [1] of 39%, an Emax (Melanocortin receptor 4 [2]) of 97% and an EC50 [3] of 228 nM. For the same molecule, the EC50 (Melanocortin receptor 4 [4]) was 3.2 nM and the IC50 (Melanocortin receptor 4 [5]) was 4.3 nM.
Molecule `CC(=O)NC(C)(C)[C@@H]1CC2(CCN(C(=O)[C@@H]3CN(C(C)(C)C)C[C@H]3c3ccc(F)cc3F)CC2)c2cc(Cl)c(C)cc21` has a Vd [6] of 3.5 L/kg, an Activity (Rattus norvegicus [7]) of 83% and an Emax [1] of 18%. For the same molecule, the Activity (Rattus norvegicus [8]) was “Dose-dependent effect”, the Emax (Melanocortin receptor 4 [2]) was 105% and the IC50 (Melanocortin receptor 5 [9]) was 83.9 nM. It also gave an Activity [10] of 197%, an EC50 (Melanocortin receptor 4 [11]) of 2 nM and a bioavailability [12] of 33%. It also gave a clearance [13] of 12 mL/min/kg, an Activity (Rattus norvegicus [14]) of 100% and a clearance [15] of 9.6 mL/min/kg. It also gave an Activity (Rattus norvegicus [16]) of 75%, an IC50 (Melanocortin receptor 3 [17]) of 890 nM and a Vd [18] of 3.5 L/kg. For the same molecule, the Activity (Rattus norvegicus [19]) was 75%, the clearance [20] was 3.5 mL/min/kg and the IC50 [21] was 1940 nM. The Activity (Rattus norvegicus [22]) was “Dose-dependent effect”, the Activity (Melanocortin receptor 5 [23]) was 9% and the EC50 [3] was 1020 nM. For the same molecule, the EC50 (Melanocortin receptor 4 [4]) was 4.9 nM, the EC50 (Melanocortin receptor 4 [24]) was 22 nM and the EC50 (Melanocortin receptor 3 [25]) was 351 nM. The half-life [26] was 11.2 h, the Activity (Melanocortin receptor 3 [27]) was 71% and the Activity [28] was 97%. For the same molecule, the Activity (Rattus norvegicus [29]) was 88%, the IC50 (Melanocortin receptor 4 [5]) was 13 nM and the bioavailability [30] was 71%. The EC50 (Melanocortin receptor 3 [31]) was 997 nM, the Activity [32] was 126% and the bioavailability [33] was 53%. The Vd [34] was 5.1 L/kg, the Activity (Rattus norvegicus [35]) was 92% and the half-life [36] was 4.5 h. The half-life [37] was 3.9 h and the Activity (Rattus norvegicus [38]) was “Dose-dependent effect”.
